From patent US4594337A, “Methods of controlling mycoplasma infections” (Eli Lilly and Company, priority 1985, dated 1986)
Converted amounts (≈) assume the structure as drawn.

Tests used:
Format in all cases: cell-based
[1] = system: Mycoplasma gallisepticum 38502; test: MIC, conventional broth-dilution microtiter test, Mycoplasma gallisepticum 38502 (tylosin-susceptible); conditions: Mycoplasmoides gallisepticum, Mycoplasma gallisepticum 38502, tylosin-susceptible strain
Excerpt: (§1) The MIC's in Table I were obtained using a conventional broth-dilution microtiter test.

[2] = system: Mycoplasma gallisepticum 34159; test: MIC, conventional broth-dilution microtiter test, Mycoplasma gallisepticum 34159 (tylosin-resistant); conditions: Mycoplasmoides gallisepticum, Mycoplasma gallisepticum 34159, tylosin-resistant strain
Excerpt: as §1

[3] = system: Mycoplasma gallisepticum 41313; test: MIC, conventional broth-dilution microtiter test, Mycoplasma gallisepticum 41313 (tylosin-resistant); conditions: Mycoplasmoides gallisepticum, Mycoplasma gallisepticum 41313, tylosin-resistant strain
Excerpt: as §1

[4] = system: Mycoplasma synoviae 46995; test: MIC, conventional broth-dilution microtiter test, Mycoplasma synoviae 46995; conditions: Mycoplasmopsis synoviae
Excerpt: as §1

[5] = system: Mycoplasma hyorhinis S-41313; test: MIC, conventional broth-dilution microtiter test, Mycoplasma hyorhinis S-41313; conditions: S41313
Excerpt: as §1

[6] = system: Mycoplasma hyopneumoniae S-5972; test: MIC, conventional broth-dilution microtiter test, Mycoplasma hyopneumoniae S-5972; conditions: Mesomycoplasma hyopneumoniae, S5972
Excerpt: as §1

CCC1OC(=O)CC(OC(C)=O)C(C)C(OC2OC(C)C(OC3CC(C)(O)C(OC(=O)CC(C)C)C(C)O3)C(N(C)C)C2O)C(CC=O)CC(C)C(=O)C=CC(C)=CC1COC1OC(C)C(O)C(O)C1OC (stereo not shown) [3-Acetyl-4"-Isovaleryl-macrocin, 3-O-acetyl-4"-O-isovalerylmacrocin]
MIC [1]: ≤ 0.048 µg/mL | MIC [2]: 3.12 µg/mL (≈ 3.03 µM) | MIC [3]: 3.12 µg/mL (≈ 3.03 µM) | MIC [4]: ≤ 0.048 µg/mL | MIC [5]: 0.39 µg/mL (≈ 0.379 µM) | MIC [6]: 0.048 µg/mL (≈ 0.0467 µM)

CCCC(=O)OC1C(C)OC(OC2C(C)OC(OC3C(CC=O)CC(C)C(=O)C=CC(C)=CC(COC4OC(C)C(O)C(O)C4OC)C(CC)OC(=O)CC(OC(C)=O)C3C)C(O)C2N(C)C)CC1(C)O (stereo not shown) [3-Acetyl-4"-(n-Butyryl)-macrocin, 3-O-acetyl-4"-O-(n-butyryl)macrocin]
MIC [1]: 0.195 µg/mL (≈ 0.192 µM) | MIC [2]: 6.25 µg/mL (≈ 6.16 µM) | MIC [3]: 3.12 µg/mL (≈ 3.08 µM) | MIC [4]: ≤ 0.048 µg/mL | MIC [5]: 0.39 µg/mL (≈ 0.385 µM) | MIC [6]: 0.048 µg/mL (≈ 0.0473 µM)

CCC1OC(=O)CC(OC(C)=O)C(C)C(OC2OC(C)C(OC3CC(C)(O)C(O)C(C)O3)C(N(C)C)C2O)C(CC=O)CC(C)C(=O)C=CC(C)=CC1COC1OC(C)C(O)C(O)C1OC (stereo not shown) [3-Acetyl-macrocin, 3-O-Acetylmacrocin]
MIC [1]: 0.78 µg/mL (≈ 0.826 µM) | MIC [2]: 50 µg/mL (≈ 53 µM) | MIC [3]: 50 µg/mL (≈ 53 µM) | MIC [4]: 0.39 µg/mL (≈ 0.413 µM) | MIC [5]: 6.25 µg/mL (≈ 6.62 µM)

CCC1OC(=O)CC(OC(C)=O)C(C)C(OC2OC(C)C(O)C(N(C)C)C2O)C(CC=O)CC(C)C(=O)C=CC(C)=CC1COC1OC(C)C(O)C(O)C1OC (stereo not shown) [3-Acetyl-lactenocin, 3-O-Acetyllactenocin]
MIC [1]: 0.78 µg/mL (≈ 0.975 µM) | MIC [2]: > 50 µg/mL | MIC [3]: 50 µg/mL (≈ 62.5 µM) | MIC [4]: 0.39 µg/mL (≈ 0.488 µM) | MIC [5]: 25 µg/mL (≈ 31.3 µM)
